Experiments:
CNT1 [1] = biological target: T1, CNT1 (Mus musculus, UniProt E9PXX9); settings: Slc28a1+/+ (CNT1 WT) mice, urine, one value per animal; Figure 2D-F source data
T1 sequence (E9PXX9 1-648): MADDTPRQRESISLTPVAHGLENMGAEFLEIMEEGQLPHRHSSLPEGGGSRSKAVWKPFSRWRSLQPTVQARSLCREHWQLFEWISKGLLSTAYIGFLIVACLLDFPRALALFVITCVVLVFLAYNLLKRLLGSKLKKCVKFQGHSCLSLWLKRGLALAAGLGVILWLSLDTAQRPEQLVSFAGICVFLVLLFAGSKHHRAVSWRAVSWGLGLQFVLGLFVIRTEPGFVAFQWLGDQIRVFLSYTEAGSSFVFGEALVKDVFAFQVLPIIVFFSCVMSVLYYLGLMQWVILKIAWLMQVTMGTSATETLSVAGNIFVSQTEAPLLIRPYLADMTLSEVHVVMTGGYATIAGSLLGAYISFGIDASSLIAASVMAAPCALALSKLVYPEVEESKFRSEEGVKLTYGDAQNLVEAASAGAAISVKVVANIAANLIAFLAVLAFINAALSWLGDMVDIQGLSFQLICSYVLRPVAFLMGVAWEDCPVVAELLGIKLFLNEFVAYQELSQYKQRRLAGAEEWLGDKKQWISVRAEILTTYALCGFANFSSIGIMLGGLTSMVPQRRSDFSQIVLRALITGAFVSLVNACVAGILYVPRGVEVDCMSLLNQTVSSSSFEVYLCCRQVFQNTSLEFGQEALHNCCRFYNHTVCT

CNT1 [2] = settings: Slc28a1+/+ and Slc28a1-/- mice; 12 h starvation

- Urine level of nucleoside / deoxynucleoside / nucleobase, CNT1 WT Urine (individual mice) (CNT1 [1]): 0
- Concentration in urine (CNT1 [2]): undetectable
SMILES: Nc1ncnc2c1ncn2[C@H]1C[C@H](O)[C@@H](CO)O1 [deoxyadenosine]

From PMC10235067, “Increased renal elimination of endogenous and synthetic pyrimidine nucleosides in concentrative nucleoside transporter 1 deficient mice” (Nature Communications, 2023)
